Laboratory results reported in ChEMBL document CHEMBL1938368, “Structure-activity relationship of naphthaldehydethiosemicarbazones in melanogenesis inhibition” (Bioorg Med Chem Lett, 2012).

Columns and labels:
B16 [1] = test: Antimelanogenic activity at alpha-MSH-stimulated mouse melanoma B16 cells after 3 days by spectrophotometry; type: functional, cell-based; settings: B16, 72 h
B16 [2] = test: Antimelanogenic activity at alpha-MSH-stimulated mouse melanoma B16 cells at 10 uM after 3 days by spectrophotometry; type: functional; settings: B16, 72 h

SMILES | IC50 (B16 [1]) [nM] | inhibition at 10 µM (B16 [2]) [%]
CN(C)C(=S)N/N=C/c1cccc2ccccc12 | 280 | > 100
S=C(NCc1ccccc1)N/N=C/c1cccc2ccccc12 | 270 | > 100
NC(=O)N/N=C/c1cccc2ccccc12 | > 100000 | < 10
COc1ccc(NC(=S)N/N=C/c2cccc3ccccc23)cc1 | 860 | > 100
S=C(N/N=C/c1cccc2ccccc12)NC1CCCCC1 | 290 | > 100
CN(/N=C/c1cccc2ccccc12)C(N)=S | 1600 | > 100
S=C(N/N=C/c1cccc2ccccc12)Nc1ccccc1 | 500 | > 100
COc1ccccc1NC(=S)N/N=C/c1cccc2ccccc12 | 920 | > 100
CN(C)C(=S)N(C)/N=C/c1cccc2ccccc12 | 8600 | 76
Cc1ccccc1NC(=S)N/N=C/c1cccc2ccccc12 | 490 | > 100
Cc1ccc(NC(=S)N/N=C/c2cccc3ccccc23)cc1 | 580 | > 100
CCNC(=S)N/N=C/c1cccc2ccccc12 | 1100 | > 100
S=C(N/N=C/c1cccc2ccccc12)Nc1ccc(Cl)cc1 | 1900 | > 100
COc1cccc(NC(=S)N/N=C/c2cccc3ccccc23)c1 | 830 | > 100
CNC(=S)N/N=C/c1cccc2ccccc12 | 2000 | > 100
Cc1cccc(NC(=S)N/N=C/c2cccc3ccccc23)c1 | 450 | > 100
